Where “and” joins values, the source holds several entries; their conditions need not be identical. Identical values can stand only once. Results filed as inconclusive are left out. Where a SMILES comes first, the peptide text is derived from it. The star is where a group is joined. Trt = c1ccc(C(c2ccccc2)(c2ccccc2)*)cc1; Cbz = O=C(OCc1ccccc1)*; Bn = c1ccc(C*)cc1; βAla = NCCC(=O)O
System: MX-1 breast xenograft, nude mice, tumor weight T/C
Assay: NCI In Vivo Anticancer Drug Screen. Data for tumor model Human Mammary Carcinoma MX-1 Xenograft (intrarenal inoculation) in NU/NU Swiss (nude) mice
Settings: endpoint: mean tumor weight change, higher = larger tumour
How it was run: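 Compound dosed to mice with transplantable tumor; vehicle group as control. Endpoint survival or tumour size, reported as T/C.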

[1] = dose: 300.0 mg/kg/injection, schedule: Q04DX003 (sc), vehicle: saline
[2] = dose: 200.0 mg/kg/injection, schedule: Q04DX003 (sc), vehicle: saline with Tween-80
[3] = dose: 400.0 mg/kg/injection, schedule: Q04DX003 (sc), vehicle: saline with Tween-80
[4] = dose: 37.5 mg/kg/injection, schedule: Q04DX003 (sc), vehicle: saline with Tween-80
[5] = dose: 75.0 mg/kg/injection, schedule: Q04DX003 (sc), vehicle: saline with Tween-80
[6] = dose: 150.0 mg/kg/injection, schedule: Q04DX003 (sc), vehicle: saline with Tween-80
[7] = dose: 300.0 mg/kg/injection, schedule: Q04DX003 (sc), vehicle: saline with Tween-80
[8] = dose: 200.0 mg/kg/injection, schedule: Q01DX010 (sc), vehicle: saline

**Q.** Which results are given for `OCC12COCN1COC2`?
**A.** T/C [1]: 80 % of control; T/C (dose: 600.0 mg/kg/injection, schedule: Q04DX003 (sc), vehicle: saline): 102 % of control; T/C (dose: 1200.0 mg/kg/injection, schedule: Q04DX003 (sc), vehicle: saline): 109 % of control; T/C (dose: 2400.0 mg/kg/injection, schedule: Q04DX003 (sc), vehicle: saline): 122 % of control

**Q.** With `CC(=O)OC1OC(=O)C(C)(C(C)=O)C1C` (stereo not drawn) as the compound, how does the T/C (dose: 5.0 mg/kg/injection, schedule: Q04DX003 (ip), vehicle: distilled water + alcohol) read?
**A.** 85 % of control

**Q.** And the T/C (dose: 10.0 mg/kg/injection, schedule: Q04DX003 (ip), vehicle: distilled water + alcohol)?
**A.** 109 % of control

**Q.** And the T/C (dose: 20.0 mg/kg/injection, schedule: Q04DX003 (ip), vehicle: distilled water + alcohol)?
**A.** 35 % of control

**Q.** How did the T/C (dose: 37.5 mg/kg/injection, schedule: Q04DX003 (sc), vehicle: saline) turn out when `N=C(N)Sc1cc(O)ccc1O` was run?
**A.** 96 % of control

**Q.** And the T/C (dose: 75.0 mg/kg/injection, schedule: Q04DX003 (sc), vehicle: saline)?
**A.** 106 % of control

**Q.** And the T/C (dose: 150.0 mg/kg/injection, schedule: Q04DX003 (sc), vehicle: saline)?
**A.** 79 % of control

**Q.** What about the T/C [1] of the same compound?
**A.** 90 % of control

**Q.** For `O=C[C@@H](CO)O[C@H](C=O)c1c[nH]c(=O)[nH]c1=O`, which T/C (dose: 18.75 mg/kg/injection, schedule: Q04DX003 (ip), vehicle: saline) is on record?
**A.** 91 % of control

**Q.** And the T/C (dose: 37.5 mg/kg/injection, schedule: Q04DX003 (ip), vehicle: saline)?
**A.** 59 % of control

**Q.** And the T/C (dose: 75.0 mg/kg/injection, schedule: Q04DX003 (ip), vehicle: saline)?
**A.** 35 % of control

**Q.** What does the source list for `NCCCNCCSP(=O)(O)O`?
**A.** T/C (dose: 100.0 mg/kg/injection, schedule: Q04DX003 (sc), vehicle: saline): 98 % of control; T/C (dose: 200.0 mg/kg/injection, schedule: Q04DX003 (sc), vehicle: saline): 80 % of control; T/C (dose: 400.0 mg/kg/injection, schedule: Q04DX003 (sc), vehicle: saline): 91 % of control

**Q.** How did the T/C (dose: 100.0 mg/kg/injection, schedule: Q04DX003 (sc), vehicle: saline with Tween-80) turn out when `C1OCN2CSCC12` (stereo not drawn) was run?
**A.** 94 % of control

**Q.** What about the T/C [2] of the same compound?
**A.** 158 % of control

**Q.** And the T/C [3]?
**A.** 80 % of control

**Q.** Which results are given for `c1ccc(OCC2CO2)c(OCC2CO2)c1` (stereo not drawn)?
**A.** T/C (dose: 150.0 mg/kg/injection, schedule: Q04DX003 (ip), vehicle: saline with Tween-80): 95 % of control; T/C (dose: 300.0 mg/kg/injection, schedule: Q04DX003 (ip), vehicle: saline with Tween-80): 99 % of control

**Q.** For `COC(=O)C(CSC(c1ccccc1)(c1ccccc1)c1ccccc1)NC(=O)C(CSCc1ccccc1)NC(=O)CCNC(=O)OCc1ccccc1` (stereo not drawn) ({Cbz-βAla}-Cys(Bn)-Cys(Trt)-OMe; configuration not given here), which T/C (dose: 75.0 mg/kg/injection, schedule: Q04DX003 (sc), vehicle: Klucel (hydroxypropylcellulose) (HPC)) is on record?
**A.** 99 % of control

**Q.** What about the T/C (dose: 150.0 mg/kg/injection, schedule: Q04DX003 (sc), vehicle: Klucel (hydroxypropylcellulose) (HPC)) of the same compound?
**A.** 49 % of control

**Q.** And the T/C (dose: 300.0 mg/kg/injection, schedule: Q04DX003 (sc), vehicle: Klucel (hydroxypropylcellulose) (HPC))?
**A.** 63 % of control

**Q.** And the T/C (dose: 600.0 mg/kg/injection, schedule: Q04DX003 (sc), vehicle: Klucel (hydroxypropylcellulose) (HPC))?
**A.** 60 % of control

**Q.** Which results are given for `NC(=O)CC(N)C(=O)O` (stereo not drawn)?
**A.** T/C (dose: 1600.0 mg/kg/injection, schedule: Q04DX003 (sc), vehicle: saline): 88 % of control; T/C (dose: 3200.0 mg/kg/injection, schedule: Q04DX003 (sc), vehicle: saline): 68 % of control; T/C (dose: 6400.0 mg/kg/injection, schedule: Q04DX003 (sc), vehicle: saline): 90 % of control

**Q.** For `O=C1NC(O)CCN1C1OC(CO)C(O)C1O` (stereo not drawn), which T/C (dose: 200.0 mg/kg/injection, schedule: Q01DX010 (sc), vehicle: water) is on record?
**A.** 111 % of control

**Q.** And the T/C (dose: 400.0 mg/kg/injection, schedule: Q01DX010 (sc), vehicle: water)?
**A.** 112 % of control

**Q.** What about the T/C (dose: 800.0 mg/kg/injection, schedule: Q01DX010 (sc), vehicle: water) of the same compound?
**A.** 79 % of control

**Q.** And the T/C (dose: 1600.0 mg/kg/injection, schedule: Q01DX010 (sc), vehicle: water)?
**A.** 103 % of control

**Q.** Which results are given for `CCC1(O)CC2CN(CCc3c([nH]c4ccccc34)C(C(=O)OC)(c3cc4c(cc3OC)N(C)C3C(O)(C(N)=O)C(O)C5(CC)C=CCN6CCC43C65)C2)C1` (stereo not drawn) (tested in a mixture with another compound)?
**A.** T/C (dose: 0.75 mg/kg/injection, schedule: Q04DX003 (sc), vehicle: water): 27 % of control; T/C (dose: 1.5 mg/kg/injection, schedule: Q04DX003 (sc), vehicle: water): 1 % of control; T/C (dose: 6.0 mg/kg/injection, schedule: Q04DX003 (sc), vehicle: water): -44 % of control

**Q.** How did the T/C (dose: 75.0 mg/kg/injection, schedule: Q04DX003 (sc), vehicle: saline + Tween-80 + alcohol) turn out when `CC(=O)Oc1ccccc1O` was run?
**A.** 89 % of control

**Q.** And the T/C (dose: 150.0 mg/kg/injection, schedule: Q04DX003 (sc), vehicle: saline + Tween-80 + alcohol)?
**A.** 117 % of control

**Q.** And the T/C (dose: 600.0 mg/kg/injection, schedule: Q04DX003 (sc), vehicle: saline + Tween-80 + alcohol)?
**A.** 68 % of control

**Q.** What does the source list for `CCOC(=O)Nc1cc2c(c(N)n1)N=C(c1ccc(Cl)cc1Cl)CN2`?
**A.** T/C [4]: 79 % of control; T/C [5]: 94 % of control; T/C [6]: 103 % of control and 117 % of control; T/C [7]: 81 % of control and 84 % of control

**Q.** With `Nc1nc(N)c2c(Cl)c(CNc3ccc(Cl)c(Cl)c3)ccc2n1` as the compound, how does the T/C (dose: 18.75 mg/kg/injection, schedule: Q04DX003 (sc), vehicle: saline with Tween-80) read?
**A.** 80 % of control

**Q.** And the T/C [4]?
**A.** 87 % of control

**Q.** What about the T/C [5] of the same compound?
**A.** 93 % of control

**Q.** What about the T/C [6] of the same compound?
**A.** 111 % of control

**Q.** For `OCC1(CO)COC2(CCCCC2)N1`, which T/C (dose: 50.0 mg/kg/injection, schedule: Q01DX010 (sc), vehicle: saline) is on record?
**A.** 107 % of control

**Q.** And the T/C [8]?
**A.** 75 % of control

**Q.** What about the T/C (dose: 200.0 mg/kg/injection, schedule: Q01DX010 (sc), vehicle: suspension in saline) of the same compound?
**A.** 83 % of control

**Q.** And the T/C (dose: 400.0 mg/kg/injection, schedule: Q01DX010 (sc), vehicle: suspension in saline)?
**A.** 56 % of control

**Q.** What about the T/C (dose: 800.0 mg/kg/injection, schedule: Q01DX010 (sc), vehicle: suspension in saline) of the same compound?
**A.** 63 % of control

**Q.** What about the T/C (dose: 1600.0 mg/kg/injection, schedule: Q01DX010 (sc), vehicle: suspension in saline) of the same compound?
**A.** 105 % of control

**Q.** Which T/C (dose: 1200.0 mg/kg/injection, schedule: Q04DX003 (sc), vehicle: suspension in saline) does the source give for `COc1cc2cc3cc4cc(OC)c(OC)cc4c(C)[n+]3cc2cc1OC` (tested in a mixture with another compound) here?
**A.** 61 % of control

**Q.** What about the T/C (dose: 2400.0 mg/kg/injection, schedule: Q04DX003 (sc), vehicle: suspension in saline) of the same compound?
**A.** 84 % of control

**Q.** With `C[C@]12CC[C@@H]3c4ccc(OC(=O)Cc5ccc(N(CCCl)CCCl)cc5)cc4CC[C@H]3[C@@H]1CC[C@@H]2OC(=O)Cc1ccc(N(CCCl)CCCl)cc1` as the compound, how does the T/C [2] read?
**A.** 58 % of control

**Q.** What about the T/C [3] of the same compound?
**A.** 50 % of control

**Q.** And the T/C (dose: 800.0 mg/kg/injection, schedule: Q04DX003 (sc), vehicle: saline with Tween-80)?
**A.** 33 % of control

**Q.** What about the T/C (dose: 1200.0 mg/kg/injection, schedule: Q04DX003 (sc), vehicle: saline with Tween-80) of the same compound?
**A.** 36 % of control

**Q.** And the T/C (dose: 1600.0 mg/kg/injection, schedule: Q04DX003 (sc), vehicle: saline with Tween-80)?
**A.** 7 % of control and 26 % of control

**Q.** And the T/C (dose: 2000.0 mg/kg/injection, schedule: Q04DX003 (sc), vehicle: saline with Tween-80)?
**A.** 21 % of control

**Q.** What about the T/C (dose: 2400.0 mg/kg/injection, schedule: Q04DX003 (sc), vehicle: saline with Tween-80) of the same compound?
**A.** 35 % of control

**Q.** What does the source list for `CNC(=O)OCc1c(COC(=O)NC)c(-c2ccc(Cl)c(Cl)c2)n2c1Cc1ccccc1C2`?
**A.** T/C (dose: 300.0 mg/kg/injection, schedule: Q04DX003 (sc), vehicle: distilled water + Tween-80): 64 % of control; T/C (dose: 600.0 mg/kg/injection, schedule: Q04DX003 (sc), vehicle: distilled water + Tween-80): 70 % of control; T/C (dose: 1200.0 mg/kg/injection, schedule: Q04DX003 (sc), vehicle: distilled water + Tween-80): 103 % of control; T/C (dose: 2400.0 mg/kg/injection, schedule: Q04DX003 (sc), vehicle: distilled water + Tween-80): 36 % of control

**Q.** How did the T/C [7] turn out when `C[Si](C)(CCl)N[Si](C)(C)CCl` was run?
**A.** 50 % of control

**Q.** What about the T/C (dose: 600.0 mg/kg/injection, schedule: Q04DX003 (sc), vehicle: saline with Tween-80) of the same compound?
**A.** 35 % of control

**Q.** `NC(=O)NO` was tested. Which T/C [8] did it give?
**A.** 44 % of control

**Q.** What about the T/C (dose: 400.0 mg/kg/injection, schedule: Q01DX010 (sc), vehicle: saline) of the same compound?
**A.** 49 % of control

**Q.** With `F[B-](F)(F)F` as the compound, how does the T/C (dose: 300.0 mg/kg/injection, schedule: Q04DX003 (sc), vehicle: gum acacia) read?
**A.** 106 % of control

**Q.** And the T/C (dose: 600.0 mg/kg/injection, schedule: Q04DX003 (sc), vehicle: gum acacia)?
**A.** 104 % of control

**Q.** And the T/C (dose: 1200.0 mg/kg/injection, schedule: Q04DX003 (sc), vehicle: gum acacia)?
**A.** 70 % of control

— PubChem BioAssay AID296 (DTP/NCI, 2004)
